Measured values reported in patent publication US12257251B2, “Use of FAK inhibitor in preparation of drug for treating tumors having NRAS mutation” (INXMED (NANJING) CO., LTD., priority 2019, dated 2025).

Experiments:
[1] = test system: 37 different tumors (human tumor CDX); conditions: across CDX models of 37 different tumors; cited from earlier work
[2] = test system: HT-1080 cells carrying NRAS, CDKN2A and IDH1 gene mutations; assay: Mouse model of human fibrosarcoma (cell line HT-1080), subcutaneous tumors: tumor growth; format: in vivo; conditions: for Median tumor volume: day 13; for TGI: day 1 to day 13, from median tumor volumes; for Tumor shrinkage [X/7]: number of animals of 7 with tumor shrinkage
Description: • 1. Materials and Method: • 1.1. Design of Research • Treatment began when the median tumor volume was between 70-130 mm^3. • 10 mice in the control group, and 7 mice in the treatment group. • Oral gavage once daily. • Control: 0.5% hydroxyethyl cellulose • BI 853520: 50 mg/kg, 25 mg/kg, 12.5 mg/kg, 6 mg/kg, • Tumor volume was measured 3 times a week and body weight was monitored daily. • Evaluation of treatment outcome was based on absolute volume of individual tumors. • Tolerability was assessed based on changes in body weight.
BI853520: synthesized according to the method in the patent WO2010058032. The dry powder was suspended in 0.5% hydroxyethyl cellulose to obtain the desired concentration for each assay. The pH of this formulation was 3.5.
HT-1080 cells: HT-1080 cells carrying NRAS, CDKN2A and IDH1 gene mutations were obtained from ATCC (CRL-121). Cells were grown in T175 tissue culture flasks with DMEM+Glutamax supplemented with 10% heat-inactivated fetal bovine serum as medium. Cells were cultured at 37° C. and 5% CO2 in humidified air.
Mice: Athymic female BomTac, approximately 6-week-old NMRI-Foxn1^nu mice were purchased from Taconic, Denmark. After arriving in the animal room, mice were acclimated to the new environment for at least 3 days before being used for assay. The animals were housed under standard conditions (temperature 21.5±1.5° C. and 55±10% humidity) with 5 mice in each group. A standard diet and autoclaved tap water were provided for ad libitum feeding. A Datamars® T-IS 8010 FDX-B transponder implanted subcutaneously in the neck region and a LabMax® II fixed reader were used to identify each mouse.
To establish subcutaneous tumors, HT-1080 cells were harvested by trypsinization, centrifuged, washed and suspended in ice-cold PBS+1×10^8 cells/ml. Then 100 μl of cell suspension containing 1×10^7 cells was injected subcutaneously into the right flank of nude mice (1 site per mouse). When tumors were established and reached a diameter of 5-8 mm (7 days after cell injection), mice were randomly assigned to the treatment group and the control group.
BI853520 was suspended in 0.5% hydroxyethyl cellulose, which was administered intragastrically through gavage needle every day, and the dosage was 10 mL/Kg.
Tumor diameters were measured with calipers three times a week (Monday, Wednesday, and Friday). The volume of each tumor [in mm^3] was calculated according to the equation, “tumor volume=length×diameter^2×π/6”. To monitor the side effects of the treatment, the mice were checked daily for abnormalities and their body weights were measured daily. Animals were sacrificed at the end of the study (approximately two weeks after the start of treatment). During the study, animals with tumor necrosis or tumors larger than 2000 mm^3 were sacrificed ahead of schedule for ethical reasons.
At the end of the assay on day 13, statistical evaluation of tumor volume and body weight parameters was performed. Absolute tumor volume and percent change in body weight (referenced to initial weight on day 1) were used. A nonparametric approach was used, and the number of observations, median, minimum and maximum values were calculated. For a quick overview of possible treatment effects, the median tumor volume for each treatment group T and the median tumor volume for the control group C were used to calculate the TGI from day 1 to day d: TGI=100×[(Cd−C1)−(Td−T1)]/(Cd−C1) • wherein, C1, T1=median tumor volume in control and treatment groups at the start of the assay (day 1). • Cd, Td=median tumor volume in control and treatment groups at the end of the assay (day 13).
Each dose of test compound was compared to the control group using a one-sided descending wilcoxon test, taking reduction in tumor volume as a treatment effect and weight loss as a side effect. […]

Structure (SMILES): COc1cc(C(=O)NC2CCN(C)CC2)c(F)cc1Nc1ncc(C(F)(F)F)c(Oc2cccc3c2C(=O)N(C)C3)n1 [BI853520]
- TGI (tumor growth inhibition) span [1]: 0 to 107%
- Median tumor volume ([2]; 6 mg/kg qd oral gavage): 322 mm^3
- TGI ([2]; 6 mg/kg qd): 70%
- Tumor shrinkage [X/7] ([2]; 6 mg/kg qd): 1 X/7
- Median tumor volume ([2]; 12.5 mg/kg qd oral gavage): 149 mm^3
- TGI ([2]; 12.5 mg/kg qd): 94%
- Tumor shrinkage [X/7] ([2]; 12.5 mg/kg qd): 2 X/7
- Median tumor volume ([2]; 25 mg/kg qd oral gavage): 15 mm^3
- TGI ([2]; 25 mg/kg qd): 113%
- Tumor shrinkage [X/7] ([2]; 25 mg/kg qd): 6 X/7
- TGI ([2]; 50 mg/kg qd): 107%
- Antitumor activity (in words) ([2]; all dose levels (6 to 50 mg/kg qd)): statistically significant antitumor activity
- Regression (in words) ([2]; all the treatment groups (6 to 50 mg/kg qd)): regression was observed
